The source of these data is patent US4526989A, “1,4-Bis (substituted-amino)-5,8-dihydroxy-anthraquinones and leuco bases thereof” (priority 1979, dated 1985).

Molecules are shown by their SMILES. Read-outs that look alike come from different tables or passages of the source.

The subject of experiment [1] is lymphocytic leukemia P388. The experiment is described as follows: Lymphocytic leukemia P388 test (intraperitoneal administration). It is filed as in vivo, DBA/2 mice. Summed up:
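DBA/2 mice, single sex, 5-6 per group, inoculated i.p. with 10^6 P388 leukemia cells. Compounds given i.p. at various doses on days 1, 5 and 9; survival followed 30 days, reporting median survival time and treated/control (T/C) survival ratio.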

The test system of another experiment is melanotic melanoma B16. The experiment is described as follows: Melanotic Melanoma B16 test. It counts as in vivo, C57BC/6 mice. Here is the method: The animals used are C57BC/6 mice, all of the same sex, weighing a minimum of 17 g. and all within a 3-g. weight range. There are normally 10 animals per test group. A one-gram portion of melanotic melanoma B16 tumor is homogenized in 10 ml. of cold balanced salt solution and a 0.5-ml. aliquot of the homogenate is implanted intraperitoneally into each of the test mice. The test compounds are administered intraperitoneally on days one through 9 (relative to tumor inoculation) at various doses. The animals are weighed and survivors are recorded on a regular basis for 60 days. The median survival time and the ratio of survival time for treated (T)/control (C) animals are calculated. […] The criterion for efficacy is T/C×100≥125%.

Where [2] appears, read: 12 mg./kg. i.p., days 1, 5 and 9.
Setting [3] is: 25 mg./kg. i.p., days 1, 5 and 9.
Where [4] appears, read: 50 mg./kg. i.p., days 1, 5 and 9.
[5] abbreviates: 100 mg./kg. i.p., days 1, 5 and 9.
Where [6] appears, read: 200 mg./kg. i.p., days 1, 5 and 9.
[7] abbreviates: Mus musculus, P388, ip, 12 mg./kg. i.p., days 1, 5 and 9, efficacy ≥125%, read-out: T/C × 100.
Setting [8] is: Mus musculus, P388, ip, 25 mg./kg. i.p., days 1, 5 and 9, efficacy ≥125%, read-out: T/C × 100.
The mark [9] stands for this setting: Mus musculus, P388, ip, 50 mg./kg. i.p., days 1, 5 and 9, efficacy ≥125%, read-out: T/C × 100.
[10] abbreviates: Mus musculus, P388, ip, 100 mg./kg. i.p., days 1, 5 and 9, efficacy ≥125%, read-out: T/C × 100.
Where [11] appears, read: Mus musculus, P388, ip, 200 mg./kg. i.p., days 1, 5 and 9, efficacy ≥125%, read-out: T/C × 100.
The mark [12] stands for this setting: 50 mg./kg. i.p., days 1 through 9.
Setting [13] is: Mus musculus, ip, 50 mg./kg. i.p., days 1 through 9, efficacy ≥125%, read-out: T/C × 100.
Where [14] appears, read: 25 mg./kg. i.p., days 1 through 9.
The mark [15] stands for this setting: Mus musculus, ip, 25 mg./kg. i.p., days 1 through 9, efficacy ≥125%, read-out: T/C × 100.
Where [16] appears, read: Mus musculus, P388, ip, read-out: T/C × 100.
Where [17] appears, read: 12 mg./kg. i.p., days 1 through 9.
[18] abbreviates: 6 mg./kg. i.p., days 1 through 9.
Where [19] appears, read: Mus musculus, ip, 6 mg./kg. i.p., days 1 through 9, efficacy ≥125%, read-out: T/C × 100.
Setting [20] is: Mus musculus, ip, 12 mg./kg. i.p., days 1 through 9, efficacy ≥125%, read-out: T/C × 100.

Take `CCN(CC)CCNc1ccc(NCCN(CC)CC)c2c1C(=O)c1c(O)ccc(O)c1C2=O` [1,4-Bis[(2-diethylaminoethyl)amino]-5,8-dihydroxyanthraquinone]: the “Median Survival Time” value turned out to be 12.0 days in experiment [1] (setting [2]); 16.0 days in experiment [1] (setting [3]); 15.0 days in experiment [1] (setting [4]); 18.0 days in experiment [1] (setting [5]); 20.0 days in experiment [1] (setting [6]); 20.5 days in the experiment on melanotic melanoma B16 (setting [12]). For the same compound, the response vs control in vivo at 12 mg/kg in experiment [1] (setting [7]) was found to be 126%. Also, the response vs control in vivo at 25 mg/kg in experiment [1] (setting [8]) is 168%. For the same compound, the response vs control in vivo at 50 mg/kg in experiment [1] (setting [9]) was 158%; in the experiment on melanotic melanoma B16 (setting [13]), 125%. Further, the response vs control in vivo at 100 mg/kg in experiment [1] (setting [10]) is 189%. Further, the response vs control in vivo at 200 mg/kg in experiment [1] (setting [11]) was 210%.
For `CN(C)CCCNc1ccc(NCCCN(C)C)c2c1C(=O)c1c(O)ccc(O)c1C2=O` [1,4-Bis[(3-dimethylaminopropyl)amino]-5,8-dihydroxyanthraquinone], the “Median Survival Time” value in experiment [1] (setting [2]) amounted to 15.0 days; in experiment [1] (setting [3]), 15.5 days; in experiment [1] (setting [4]) it was 15.5 days; with melanotic melanoma B16 (setting [14]), 20.0 days. The response vs control in vivo at 12 mg/kg in experiment [1] (setting [7]) came to 125%. The response vs control in vivo at 25 mg/kg in experiment [1] (setting [8]) is 129%; with melanotic melanoma B16 (setting [15]), 125%. Moreover, the response vs control in vivo at 50 mg/kg in experiment [1] (setting [9]) came out at 129%.
`NCCNC1=C2C(=O)c3c(O)ccc(O)c3C(=O)C2=C(NCCN)CC1` [Leuco-1,4-bis(2-aminoethylamino)-5,8-dihydroxyanthraquinone]: the “Median Survival Time” value in experiment [1] (setting [2]) came out at 18.0 days; in experiment [1] (setting [3]), 19.0 days; in experiment [1] (setting [4]) it was 23.0 days; in experiment [1] (setting [5]), 19.0 days; in the experiment with melanotic melanoma B16 (setting [17]), 32.0 days. Also, the response vs control in vivo at 12 mg/kg in experiment [1] (setting [16]) worked out at 150%; in the experiment on melanotic melanoma B16 (Mus musculus, ip, read-out: T/C × 100), 200%. Also, the response vs control in vivo at 100 mg/kg in experiment [1] (setting [16]) turned out to be 158%. The response vs control in vivo at 25 mg/kg in experiment [1] (setting [8]) was 158%. Moreover, the response vs control in vivo at 50 mg/kg in experiment [1] (setting [9]) amounted to 192%.
`NCCCNC1=C2C(=O)c3c(O)ccc(O)c3C(=O)C2=C(NCCCN)CC1` [Leuco-1,4-bis(3-aminopropylamino)-5,8-dihydroxyanthraquinone]: the “Median Survival Time” value in experiment [1] (setting [2]) came to 16.0 days; in experiment [1] (setting [3]), 18.0 days; in experiment [1] (setting [4]), 16.0 days; in experiment [1] (setting [5]) it was 18.0 days; in experiment [1] (setting [6]), 18.0 days; in the experiment with melanotic melanoma B16 (setting [18]), 22.5 days. Further, the “Median Survival Time” value with melanotic melanoma B16 (setting [17]) stood at 23.5 days; in the experiment on melanotic melanoma B16 (setting [14]) it was 27.0 days; in the experiment on melanotic melanoma B16 (setting [12]), 31.5 days. For the same compound, the response vs control in vivo at 12 mg/kg in experiment [1] (setting [7]) was found to be 133%; with melanotic melanoma B16 (setting [20]), 147%. In addition, the response vs control in vivo at 25 mg/kg in experiment [1] (setting [8]) was 150%; in the experiment with melanotic melanoma B16 (setting [15]) it was 169%. Moreover, the response vs control in vivo at 50 mg/kg in experiment [1] (setting [9]) is 133%; in the experiment with melanotic melanoma B16 (setting [13]), 197%. Moreover, in experiment [1] (setting [10]), the response vs control in vivo at 100 mg/kg amounted to 150%. The response vs control in vivo at 200 mg/kg in experiment [1] (setting [11]) was found to be 150%. In addition, in the experiment with melanotic melanoma B16 (setting [19]), the response vs control in vivo at 6 mg/kg was determined as 141%.
`NCCCCNC1=C2C(=O)c3c(O)ccc(O)c3C(=O)C2=C(NCCCCN)CC1` [Leuco-1,4-bis(4-aminobutylamino)-5,8-dihydroxyanthraquinone]: the “Median Survival Time” value in experiment [1] (setting [5]) stood at 14.0 days; in experiment [1] (setting [6]) it was 17.0 days; in experiment [1] (300 mg./kg. i.p., days 1, 5 and 9), 18.0 days; in experiment [1] (400 mg./kg. i.p., days 1, 5 and 9), 20.0 days; with melanotic melanoma B16 (setting [17]), 16.0 days; in the experiment on melanotic melanoma B16 (setting [14]) it was 18.5 days. Further, the “Median Survival Time” value in the experiment on melanotic melanoma B16 (setting [12]) was determined as 20.0 days; in the experiment on melanotic melanoma B16 (100 mg./kg. i.p., days 1 through 9) it was 21.0 days. Also, the response vs control in vivo at 100 mg/kg amounted to 133% in experiment [1] (setting [10]) and 124% in the experiment on melanotic melanoma B16 (Mus musculus, ip, 100 mg./kg. i.p., days 1 through 9, efficacy ≥125%, read-out: T/C × 100). The response vs control in vivo at 200 mg/kg in experiment [1] (setting [11]) was determined as 162%. For the same compound, the response vs control in vivo at 300 mg/kg in experiment [1] (Mus musculus, P388, ip, 300 mg./kg. i.p., days 1, 5 and 9, efficacy ≥125%, read-out: T/C × 100) was determined as 171%. In addition, in experiment [1] (Mus musculus, P388, ip, 400 mg./kg. i.p., days 1, 5 and 9, efficacy ≥125%, read-out: T/C × 100), the response vs control in vivo at 400 mg/kg stood at 190%. In addition, in the experiment on melanotic melanoma B16 (setting [20]), the response vs control in vivo at 12 mg/kg turned out to be 94%. In the experiment on melanotic melanoma B16 (setting [15]), the response vs control in vivo at 25 mg/kg is 109%. In addition, in the experiment on melanotic melanoma B16 (setting [13]), the response vs control in vivo at 50 mg/kg is 118%.
Regarding `O=C1C2=C(NCCN3CCNCC3)CCC(NCCN3CCNCC3)=C2C(=O)c2c(O)ccc(O)c21` [Leuco-1,4-bis[2-(1-piperazinyl)ethylamino]-5,8-dihydroxyanthraquinone], the “Median Survival Time” value stood at 14.0 days in experiment [1] (12.5 mg./kg. i.p., days 1, 5 and 9); 15.0 days in experiment [1] (setting [3]); 16.0 days in experiment [1] (setting [4]); 21.0 days in experiment [1] (setting [5]); 7.0 days in experiment [1] (setting [6]); 20.5 days in the experiment with melanotic melanoma B16 (3 mg./kg. i.p., days 1 through 9). Also, the “Median Survival Time” value in the experiment on melanotic melanoma B16 (setting [18]) was found to be 22.0 days; in the experiment with melanotic melanoma B16 (12.5 mg./kg. i.p., days 1 through 9), 26.0 days; in the experiment on melanotic melanoma B16 (setting [14]) it was 30.5 days; with melanotic melanoma B16 (setting [12]), 34.5 days. Besides, the response vs control in vivo at 12.5 mg/kg in experiment [1] (Mus musculus, P388, ip, 12.5 mg./kg. i.p., days 1, 5 and 9, efficacy ≥125%, read-out: T/C × 100) was determined as 156%; with melanotic melanoma B16 (Mus musculus, ip, 12.5 mg./kg. i.p., days 1 through 9, efficacy ≥125%, read-out: T/C × 100) it was 153%. Also, the values for the response vs control in vivo at 25 mg/kg (in experiment [1] (setting [8]); in the experiment with melanotic melanoma B16 (setting [15])) were 167% and 179%, respectively. The response vs control in vivo at 50 mg/kg in experiment [1] (setting [9]) is 178%; in the experiment with melanotic melanoma B16 (setting [13]) it was 203%. Also, the response vs control in vivo at 100 mg/kg in experiment [1] (setting [10]) was determined as 233%. Moreover, the response vs control in vivo at 200 mg/kg in experiment [1] (setting [11]) was 78%. Besides, the response vs control in vivo at 3 mg/kg in the experiment on melanotic melanoma B16 (Mus musculus, ip, 3 mg./kg. i.p., days 1 through 9, efficacy ≥125%, read-out: T/C × 100) is 121%. In addition, the response vs control in vivo at 6 mg/kg in the experiment with melanotic melanoma B16 (setting [19]) is 129%.
For the compound `O=C1C2=C(NCCN3CCCC3)CCC(NCCN3CCCC3)=C2C(=O)c2c(O)ccc(O)c21` [Leuco-1,4-bis[2-(1-pyrrolidinyl)ethylamino]-5,8-dihydroxyanthraquinone], the “Median Survival Time” value in experiment [1] (setting [3]) worked out at 15.0 days; in experiment [1] (setting [4]), 16.0 days; in experiment [1] (setting [5]), 19.0 days; in experiment [1] (setting [6]), 23.0 days; in the experiment on melanotic melanoma B16 (setting [17]), 21.0 days; in the experiment with melanotic melanoma B16 (setting [14]) it was 22.0 days. In addition, in the experiment on melanotic melanoma B16 (setting [12]), the “Median Survival Time” value amounted to 23.0 days. Further, the figures for the response vs control in vivo at 25 mg/kg (in experiment [1] (setting [8]); with melanotic melanoma B16 (setting [15])) were 136% and 137%, respectively. Moreover, the figures for the response vs control in vivo at 50 mg/kg (in experiment [1] (setting [9]); in the experiment on melanotic melanoma B16 (setting [13])) were 145% and 144%, respectively. In addition, the response vs control in vivo at 100 mg/kg in experiment [1] (setting [10]) was 173%. The response vs control in vivo at 200 mg/kg in experiment [1] (setting [11]) is 209%. Also, in the experiment on melanotic melanoma B16 (setting [20]), the response vs control in vivo at 12 mg/kg turned out to be 131%.
